The record followed here is article PMC3445516 (PLoS ONE, 2012).

What all share (assay): Ambit kinase profiling, competition binding
One experiment deals with T1, ERBB4 (Homo sapiens, UniProt Q15303).
T1 construct: purchased Ambit Biosciences (KINOMEscan)
The procedure: (§1) Also included in the kinase profile are four isoforms of PKC (δ, ε, η, θ) and eight isoforms of CAMKs (CAMKIα, δ, γ; CAMKIIα, β, δ, γ; CAMK4).
(§2) The global kinase profiling experiment was performed by Ambit Biosciences.

The target in another experiment is T2, YANK2 (Homo sapiens, UniProt Q9NY57).
T2 construct: purchased Ambit Biosciences (KINOMEscan)
T2 sequence (Q9NY57 whole entry): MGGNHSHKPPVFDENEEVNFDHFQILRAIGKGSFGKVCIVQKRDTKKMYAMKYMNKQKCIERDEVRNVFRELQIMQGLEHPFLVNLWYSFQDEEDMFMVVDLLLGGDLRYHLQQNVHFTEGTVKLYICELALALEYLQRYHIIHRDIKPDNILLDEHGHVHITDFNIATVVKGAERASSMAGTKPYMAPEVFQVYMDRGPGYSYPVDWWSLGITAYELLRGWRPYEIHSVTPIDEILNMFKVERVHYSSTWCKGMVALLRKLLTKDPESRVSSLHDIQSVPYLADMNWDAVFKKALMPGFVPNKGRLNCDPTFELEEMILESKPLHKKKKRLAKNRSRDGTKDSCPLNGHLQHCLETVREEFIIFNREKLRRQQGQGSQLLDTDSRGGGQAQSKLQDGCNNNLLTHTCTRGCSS
The procedure:
as §1, §2

The target of a further experiment is T3, MRCKB (Homo sapiens, UniProt Q9Y5S2).
T3 construct: purchased Ambit Biosciences (KINOMEscan)
T3 sequence (Q9Y5S2 whole entry): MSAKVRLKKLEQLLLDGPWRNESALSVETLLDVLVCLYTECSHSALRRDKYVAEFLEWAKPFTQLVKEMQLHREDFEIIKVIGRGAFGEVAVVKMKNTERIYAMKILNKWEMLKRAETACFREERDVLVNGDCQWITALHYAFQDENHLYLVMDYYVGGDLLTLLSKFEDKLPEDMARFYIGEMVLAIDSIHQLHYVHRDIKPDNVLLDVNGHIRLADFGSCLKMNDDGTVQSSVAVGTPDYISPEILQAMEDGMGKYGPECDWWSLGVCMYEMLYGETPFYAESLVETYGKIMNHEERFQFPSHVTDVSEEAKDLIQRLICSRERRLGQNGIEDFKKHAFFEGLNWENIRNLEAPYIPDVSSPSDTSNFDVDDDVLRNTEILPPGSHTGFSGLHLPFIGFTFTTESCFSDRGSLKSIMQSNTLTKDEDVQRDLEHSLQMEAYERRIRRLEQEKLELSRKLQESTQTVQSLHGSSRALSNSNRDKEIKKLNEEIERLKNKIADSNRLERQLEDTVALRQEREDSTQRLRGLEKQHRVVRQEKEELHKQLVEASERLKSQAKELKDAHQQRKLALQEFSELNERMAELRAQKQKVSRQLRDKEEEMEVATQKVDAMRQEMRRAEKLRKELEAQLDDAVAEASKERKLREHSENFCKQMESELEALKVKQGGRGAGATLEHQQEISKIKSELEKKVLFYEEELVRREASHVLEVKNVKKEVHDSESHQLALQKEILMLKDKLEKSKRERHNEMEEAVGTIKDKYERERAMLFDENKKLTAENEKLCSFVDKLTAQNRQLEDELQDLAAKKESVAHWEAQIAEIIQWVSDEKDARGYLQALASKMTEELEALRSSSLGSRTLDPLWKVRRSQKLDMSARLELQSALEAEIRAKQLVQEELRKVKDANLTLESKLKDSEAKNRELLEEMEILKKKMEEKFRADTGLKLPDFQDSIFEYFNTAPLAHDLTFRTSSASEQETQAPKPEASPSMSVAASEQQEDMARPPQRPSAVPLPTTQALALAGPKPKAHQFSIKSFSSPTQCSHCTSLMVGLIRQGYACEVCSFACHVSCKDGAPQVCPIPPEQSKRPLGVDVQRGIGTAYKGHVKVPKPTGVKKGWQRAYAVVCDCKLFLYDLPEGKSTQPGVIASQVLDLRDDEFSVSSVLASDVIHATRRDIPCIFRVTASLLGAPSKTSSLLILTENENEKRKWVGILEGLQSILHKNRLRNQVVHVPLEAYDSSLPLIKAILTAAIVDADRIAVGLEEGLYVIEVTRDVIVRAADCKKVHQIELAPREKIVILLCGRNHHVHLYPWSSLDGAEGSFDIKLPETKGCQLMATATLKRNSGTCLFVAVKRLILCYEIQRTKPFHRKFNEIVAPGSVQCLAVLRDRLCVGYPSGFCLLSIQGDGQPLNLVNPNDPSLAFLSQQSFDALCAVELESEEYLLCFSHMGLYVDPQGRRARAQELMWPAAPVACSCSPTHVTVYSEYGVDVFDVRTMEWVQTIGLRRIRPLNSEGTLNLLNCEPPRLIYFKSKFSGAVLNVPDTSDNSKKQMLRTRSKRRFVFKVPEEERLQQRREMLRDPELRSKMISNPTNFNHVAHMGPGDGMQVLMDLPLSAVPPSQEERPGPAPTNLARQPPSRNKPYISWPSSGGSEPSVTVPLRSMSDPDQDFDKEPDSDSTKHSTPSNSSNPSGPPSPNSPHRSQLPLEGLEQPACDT
On the procedure: as §1, §2

Another experiment has as its target T4, GAK (Homo sapiens, UniProt O14976).
T4 construct: purchased Ambit Biosciences (KINOMEscan)
T4 sequence (O14976 1-1311): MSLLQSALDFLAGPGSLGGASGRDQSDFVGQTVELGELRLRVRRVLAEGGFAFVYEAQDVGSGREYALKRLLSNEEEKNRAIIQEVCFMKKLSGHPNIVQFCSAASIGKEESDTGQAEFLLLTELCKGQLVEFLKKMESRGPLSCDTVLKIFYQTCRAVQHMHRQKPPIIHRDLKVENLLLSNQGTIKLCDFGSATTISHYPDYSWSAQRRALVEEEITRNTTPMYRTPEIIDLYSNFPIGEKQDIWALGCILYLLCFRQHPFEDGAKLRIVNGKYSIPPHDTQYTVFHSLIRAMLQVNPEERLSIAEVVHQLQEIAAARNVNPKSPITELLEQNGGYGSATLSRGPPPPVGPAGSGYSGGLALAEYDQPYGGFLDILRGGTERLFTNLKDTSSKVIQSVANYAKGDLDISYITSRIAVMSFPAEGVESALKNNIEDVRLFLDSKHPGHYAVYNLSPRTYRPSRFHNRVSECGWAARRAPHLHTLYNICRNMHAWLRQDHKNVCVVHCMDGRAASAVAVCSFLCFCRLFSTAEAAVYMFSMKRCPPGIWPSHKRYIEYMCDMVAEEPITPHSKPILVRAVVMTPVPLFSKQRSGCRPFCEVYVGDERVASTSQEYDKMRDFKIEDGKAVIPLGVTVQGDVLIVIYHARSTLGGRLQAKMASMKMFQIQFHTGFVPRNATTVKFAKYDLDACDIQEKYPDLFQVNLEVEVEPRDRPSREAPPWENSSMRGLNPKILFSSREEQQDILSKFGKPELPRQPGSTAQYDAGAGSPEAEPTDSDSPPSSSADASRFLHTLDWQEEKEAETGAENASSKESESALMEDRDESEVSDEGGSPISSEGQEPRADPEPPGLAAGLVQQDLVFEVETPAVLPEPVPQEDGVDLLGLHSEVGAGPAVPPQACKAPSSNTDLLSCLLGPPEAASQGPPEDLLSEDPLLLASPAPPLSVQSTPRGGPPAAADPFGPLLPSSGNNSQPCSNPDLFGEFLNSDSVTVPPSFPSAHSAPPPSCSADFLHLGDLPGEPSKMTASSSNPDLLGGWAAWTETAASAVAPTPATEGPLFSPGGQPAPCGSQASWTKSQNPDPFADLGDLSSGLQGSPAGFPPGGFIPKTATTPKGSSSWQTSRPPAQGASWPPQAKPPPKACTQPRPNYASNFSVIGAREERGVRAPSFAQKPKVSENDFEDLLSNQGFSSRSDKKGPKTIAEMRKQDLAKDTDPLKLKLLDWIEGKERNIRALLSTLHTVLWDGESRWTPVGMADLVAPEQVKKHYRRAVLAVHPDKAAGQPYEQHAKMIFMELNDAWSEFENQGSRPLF
The procedure: as §1, §2

Another experiment deals with T5, CLK2 (Homo sapiens, UniProt P49760).
T5 construct: purchased Ambit Biosciences (KINOMEscan)
On the procedure: as §1, §2

For another experiment, the target named is T6, p38-delta (Homo sapiens, UniProt O15264).
T6 construct: purchased Ambit Biosciences (KINOMEscan)
T6 sequence (O15264 1-365): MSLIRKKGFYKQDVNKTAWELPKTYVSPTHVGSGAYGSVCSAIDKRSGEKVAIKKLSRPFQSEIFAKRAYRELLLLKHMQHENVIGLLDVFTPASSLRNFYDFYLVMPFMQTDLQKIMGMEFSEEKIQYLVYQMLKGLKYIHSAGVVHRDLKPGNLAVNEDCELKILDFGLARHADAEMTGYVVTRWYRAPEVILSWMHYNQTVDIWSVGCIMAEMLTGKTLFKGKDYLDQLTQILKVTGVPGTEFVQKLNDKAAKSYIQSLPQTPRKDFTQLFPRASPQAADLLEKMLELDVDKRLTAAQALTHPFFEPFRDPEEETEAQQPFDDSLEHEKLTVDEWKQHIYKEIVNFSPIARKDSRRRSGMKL
The procedure:
as §1, §2

The target of another experiment is T7, CSNK1G1 (Homo sapiens, UniProt Q9HCP0).
T7 construct: purchased Ambit Biosciences (KINOMEscan)
T7 sequence (Q9HCP0 whole entry): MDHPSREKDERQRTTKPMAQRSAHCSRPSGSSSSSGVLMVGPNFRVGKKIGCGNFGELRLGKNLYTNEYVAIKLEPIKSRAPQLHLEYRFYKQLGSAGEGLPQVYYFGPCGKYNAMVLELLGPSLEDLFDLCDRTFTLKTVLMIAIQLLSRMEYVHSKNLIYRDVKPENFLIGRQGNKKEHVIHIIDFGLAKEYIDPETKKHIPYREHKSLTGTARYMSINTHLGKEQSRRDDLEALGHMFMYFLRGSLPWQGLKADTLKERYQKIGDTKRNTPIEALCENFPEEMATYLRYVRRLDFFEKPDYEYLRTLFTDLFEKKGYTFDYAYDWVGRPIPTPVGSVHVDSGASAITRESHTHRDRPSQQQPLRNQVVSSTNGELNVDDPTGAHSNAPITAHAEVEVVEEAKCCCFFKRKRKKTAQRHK
The following applies: for % Competition: 10 µM. On the procedure:
as §1, §2

The next experiment concerns the target T8, MEK3 (Homo sapiens, UniProt P46734).
T8 construct: purchased Ambit Biosciences (KINOMEscan)
T8 sequence (P46734 1-347): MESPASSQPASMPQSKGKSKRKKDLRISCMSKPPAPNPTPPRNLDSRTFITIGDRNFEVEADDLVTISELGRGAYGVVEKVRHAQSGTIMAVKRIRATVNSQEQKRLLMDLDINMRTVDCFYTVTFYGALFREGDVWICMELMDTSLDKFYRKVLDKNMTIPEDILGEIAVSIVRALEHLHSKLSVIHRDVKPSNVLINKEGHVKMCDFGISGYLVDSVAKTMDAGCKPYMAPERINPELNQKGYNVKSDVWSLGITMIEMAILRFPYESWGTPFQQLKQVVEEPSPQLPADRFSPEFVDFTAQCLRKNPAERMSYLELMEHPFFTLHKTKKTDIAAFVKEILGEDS
The procedure: as §1, §2

In another experiment the target is T9, PCTK1 (Homo sapiens, UniProt Q00536).
T9 construct: purchased Ambit Biosciences (KINOMEscan)
T9 sequence (Q00536 whole entry): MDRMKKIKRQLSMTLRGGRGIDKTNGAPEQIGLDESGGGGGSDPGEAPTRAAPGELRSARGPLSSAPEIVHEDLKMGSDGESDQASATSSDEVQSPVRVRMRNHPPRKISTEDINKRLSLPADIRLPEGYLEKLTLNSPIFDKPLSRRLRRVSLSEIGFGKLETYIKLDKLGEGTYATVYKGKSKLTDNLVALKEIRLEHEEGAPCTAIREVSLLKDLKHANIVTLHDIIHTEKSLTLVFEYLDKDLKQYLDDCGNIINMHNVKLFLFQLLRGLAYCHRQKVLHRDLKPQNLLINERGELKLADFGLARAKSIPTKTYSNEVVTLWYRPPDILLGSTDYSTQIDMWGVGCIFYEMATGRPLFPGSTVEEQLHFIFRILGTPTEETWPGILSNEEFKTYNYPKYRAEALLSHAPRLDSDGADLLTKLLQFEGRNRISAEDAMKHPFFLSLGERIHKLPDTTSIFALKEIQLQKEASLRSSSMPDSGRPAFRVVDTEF
On the procedure: as §1, §2

Experiment [1] deals with T10, EGFR(L747-S752del, P753S) (Homo sapiens, UniProt P00533, DEL747-752/P753S).
T10 construct: purchased Ambit Biosciences (KINOMEscan)
The following applies: for % Competition: 10 µM. The procedure:
as §1, §2

The target in a further experiment is T11, ADCK3 (Homo sapiens, UniProt Q8NI60).
T11 construct: purchased Ambit Biosciences (KINOMEscan)
T11 sequence (Q8NI60 163-647): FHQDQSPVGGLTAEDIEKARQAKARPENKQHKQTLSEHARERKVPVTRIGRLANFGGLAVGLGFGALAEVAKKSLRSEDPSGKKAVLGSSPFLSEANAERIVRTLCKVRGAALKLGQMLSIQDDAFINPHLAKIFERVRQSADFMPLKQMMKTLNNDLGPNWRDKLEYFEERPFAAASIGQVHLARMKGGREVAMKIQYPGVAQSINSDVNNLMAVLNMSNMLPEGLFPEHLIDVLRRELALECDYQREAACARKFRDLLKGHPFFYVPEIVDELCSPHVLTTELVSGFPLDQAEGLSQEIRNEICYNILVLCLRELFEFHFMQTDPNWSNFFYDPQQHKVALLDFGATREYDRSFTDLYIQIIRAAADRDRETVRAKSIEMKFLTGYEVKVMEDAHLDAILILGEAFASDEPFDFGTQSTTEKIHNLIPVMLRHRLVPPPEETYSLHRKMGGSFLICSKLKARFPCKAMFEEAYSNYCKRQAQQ
The procedure: as §1, §2

Structures are written as SMILES. Like-named read-outs stand apart in the source and are kept apart here.

T1 sequence (Q15303 26-1308): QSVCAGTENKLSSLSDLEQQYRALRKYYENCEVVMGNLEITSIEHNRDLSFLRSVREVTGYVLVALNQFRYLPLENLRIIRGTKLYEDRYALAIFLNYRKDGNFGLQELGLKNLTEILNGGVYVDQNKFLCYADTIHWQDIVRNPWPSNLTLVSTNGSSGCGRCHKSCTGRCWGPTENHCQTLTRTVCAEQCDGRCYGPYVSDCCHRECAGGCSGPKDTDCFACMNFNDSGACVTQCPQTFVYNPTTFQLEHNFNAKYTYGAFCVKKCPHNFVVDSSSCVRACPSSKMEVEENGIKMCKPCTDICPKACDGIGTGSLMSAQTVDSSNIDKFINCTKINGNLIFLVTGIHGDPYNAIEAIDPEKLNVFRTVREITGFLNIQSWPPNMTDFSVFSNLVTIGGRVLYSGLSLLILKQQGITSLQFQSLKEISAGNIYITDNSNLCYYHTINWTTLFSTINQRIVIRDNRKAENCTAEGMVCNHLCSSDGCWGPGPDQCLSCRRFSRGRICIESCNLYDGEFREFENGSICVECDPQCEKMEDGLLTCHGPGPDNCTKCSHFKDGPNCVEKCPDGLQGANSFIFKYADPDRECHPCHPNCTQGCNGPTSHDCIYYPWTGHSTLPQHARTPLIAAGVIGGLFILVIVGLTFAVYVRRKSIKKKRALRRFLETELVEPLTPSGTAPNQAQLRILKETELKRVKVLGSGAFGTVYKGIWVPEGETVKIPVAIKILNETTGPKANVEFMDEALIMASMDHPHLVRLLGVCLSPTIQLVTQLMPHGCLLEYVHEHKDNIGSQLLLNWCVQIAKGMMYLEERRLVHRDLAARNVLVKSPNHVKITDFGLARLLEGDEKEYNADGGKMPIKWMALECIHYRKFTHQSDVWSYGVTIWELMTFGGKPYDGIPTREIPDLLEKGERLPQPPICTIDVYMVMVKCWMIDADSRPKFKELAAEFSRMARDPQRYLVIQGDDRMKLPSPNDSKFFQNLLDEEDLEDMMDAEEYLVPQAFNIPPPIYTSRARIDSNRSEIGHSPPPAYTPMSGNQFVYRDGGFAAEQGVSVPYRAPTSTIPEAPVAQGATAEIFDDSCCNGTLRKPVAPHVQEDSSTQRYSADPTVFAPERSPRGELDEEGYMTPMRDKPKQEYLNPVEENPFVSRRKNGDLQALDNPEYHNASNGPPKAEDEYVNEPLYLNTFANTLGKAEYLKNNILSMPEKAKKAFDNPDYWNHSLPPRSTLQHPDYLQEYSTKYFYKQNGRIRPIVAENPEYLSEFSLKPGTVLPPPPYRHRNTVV

For the compound `Fc1ccc(-c2c(-c3ccncc3)[nH]c3nccnc23)cc1` [Compound 122], the inhibition at 10 µM at ERBB4 (ERBB4, 10 µM, read-out: % Competition) was determined as 80%; at YANK2 (YANK2, 10 µM, read-out: % Competition), 89%; at MRCKB (MRCKB, 10 µM, read-out: % Competition) it was 98%; on GAK (GAK, 10 µM, read-out: % Competition) it was 98%; on CLK2 (CLK2, 10 µM, read-out: % Competition), 97%; at p38-delta (10 µM, read-out: % Competition) it was 82%. Also, the inhibition at 10 µM on MEK3 (MEK3, 10 µM, read-out: % Competition) was found to be 99%; at PCTK1 (PCTK1, 10 µM, read-out: % Competition) it was 100%; on ADCK3 (ADCK3, 10 µM, read-out: % Competition), 83%. Also, the “% Competition” value on CSNK1G1 was determined as 78%; in [1] it was 95%.

Regarding `CC(O)CNc1cc(-c2[nH]c3cccnc3c2-c2ccc(F)cc2)ccn1` (stereo not drawn) [Compound 140], the inhibition at 10 µM at ERBB4 (read-out: % Competition) is under 50%; at YANK2 (read-out: % Competition) it was under 50%; on MRCKB (read-out: % Competition) it was under 50%; at GAK (read-out: % Competition) it was 98%; at CLK2 (read-out: % Competition) it was under 50%; on MEK3 (read-out: % Competition) it was under 50%. Besides, the figures for the inhibition at 10 µM on PCTK1 (read-out: % Competition) and on ADCK3 (read-out: % Competition) were under 50% and 90%, respectively. Moreover, the “% Competition” value at p38-delta (10 µM) is recorded as under 50%; at CSNK1G1 it was 94%; in experiment [1], 84%.

As to `Fc1ccc(-c2c(-c3ccncc3)[nH]c3nccnc23)cc1` [RO1155697-000-005], the inhibition at 10 µM came to 80% at ERBB4 (ERBB4, compound concentration 10 uM, read-out: Percent Competition); 89% at YANK2 (YANK2, compound concentration 10 uM, read-out: Percent Competition); 98% at MRCKB (MRCKB, compound concentration 10 uM, read-out: Percent Competition); 98% at GAK (GAK, compound concentration 10 uM, read-out: Percent Competition); 97% on CLK2 (CLK2, compound concentration 10 uM, read-out: Percent Competition); 82% at p38-delta (compound concentration 10 uM, read-out: Percent Competition). For the same compound, the inhibition at 10 µM at MEK3 (MEK3, compound concentration 10 uM, read-out: Percent Competition) came out at 99%; at PCTK1 (PCTK1, compound concentration 10 uM, read-out: Percent Competition), 100%; at ADCK3 (ADCK3, compound concentration 10 uM, read-out: Percent Competition), 83%. In addition, the “Percent Competition” value is reported as 78% on CSNK1G1 (compound concentration 10 uM) and 95% in experiment [1] (compound concentration 10 uM).
